Measured values taken from patent publication US20160022751A1, “NOVEL COMPOSITION FOR TREATING ALZHEIMER'S DISEASE AND IMPROVING COGNITIVE FUNCTION OF ALZHEIMER'S PATIENTS” (GANGNEUNG-WONJU NATIONAL UNIVERSITY INDUSTRY ACADEMY …, priority 2014, published 2016).

Legend:
ERK = ERK phosphorylation in HMO6 cells (western blot); format: cell-based, human; settings: Rg3 5 μg/ml, western blot (FIG. 18)
Procedure: FIG. 18 is a photograph showing a result of western blot analysis for confirming the degree of phosphorylation of ERK (extracellular-regulated kinase) and p38, according to an embodiment of the present invention. Depending on the presence of Rg3, the levels of phospho-ERK and phospho-p38 protein were investigated by immune-blotting. HMO6 cells were treated with Rg3 (5 μg/ml) after plated on 60 mm cell culture plates and western blot analysis was performed after the cells were placed in phenol red negative/sere-free DMEM medium for 1 h. The western blot analysis was carried out three times independently.
HMO6 cells were lysed in 1% RIPA buffer containing protease and phosphatase inhibitors (Roche, Mannheim, Germany) and whole-cell lysates were separated on 10% sodium dodecyl sulfate-polyacrylamide gel electrophoresis. After electrophoresis, the proteins were transferred to polyvinylidene fluoride membranes, and the membranes were blocked with 5% skim milk in Tris-buffered saline solution containing 0.1% Tween-20. The membranes were then immunoblotted with primary antibodies, anti-phospho-p38, anti-p38, anti-phospho-ERK, anti-ERK, and anti-f3-actin (Santa Cruz Biotechnology, USA), followed by incubation with horseradish peroxidase-conjugated anti-rabbit or anti-mouse secondary antibodies (Stressgen, USA). Blots were developed using an enhanced chemiluminescent solution (Thermo, USA).

SRA [1] = assay: In vivo SRA mRNA expression in brain tissues (RT-PCR); settings: mice administrated with Rg3 (FIG. 24A)
Procedure: Total RNA extracts from HMO6 cells or perfused brain tissue were prepared using the Trizol method (Invitrogen). cDNA was synthesized from RNA by reverse transcription of 1 μg total RNA using the Improm-II reverse transcription system (Promega, Wis., USA) and oligo dT primers in a total volume of 20 μl. PCR amplification was performed using the primers listed in Table 1 (Bioneer, Korea). qPCR reactions were run on a Rotor-Gene 6000 (Corbett Research, Sydney, Australia) using a SensiMix™ SYBR Hi-ROX Kit (Bioline, UK) in 20 μl reaction mixtures. Each real-time-PCR master mix contained 10 μl 2× enzyme master mix, 7 μl RNase free water, 1 μl of each primer (10 pM each), and 1 μl diluted template. The PCR was performed with an initial pre-incubation step for 15 min at 95° C., followed by 45 cycles of 95° C. for 15 s, annealing at 52° C. for 15 s, and extension at 72° C. for 10 s. […] Relative sample expression levels were calculated using Rotor-Gene 6000 Series Software 1.7 and were expressed relative to β-actin for mice or glyceraldehyde 3-phosphate dehydrogenase for HMO6 cells and corrected for between-run variability. Data for the experimental samples are expressed as a percentage of the internal control gene. […]

caveolin1 = assay: Caveolin1 immunocytochemistry in HMO6 cells; format: cell-based, human; settings: Rg3 5 μg/ml, 24 h, immunocytochemistry (FIG. 20)
Procedure: (§1) FIG. 20 is a fluorescence microscopic image showing a result of immunocytochemical analysis investigating the expression of caveolin and clathrin in HMO6 cells treated with or without Rg3. HMO6 cells were treated with Rg3 (5 μg/ml) for 24 h after plated on chamber slides and then the cells were stained with primary antibodies binding specifically to caveolin and clathrin, respectively and counterstained with DAPI. The length of scale bar represents 10 μm.
(§2) The present inventors investigated whether ginsenosides can induce the expression of SRA, clathrin, caveolin 1, NEP or IDE and the differentiation of neurons actually through immunocytochemical analysis (ICC) and microscopic observations. Specifically, Cultured HMO6 cells were fixed in 4% paraformaldehyde (in 1×PBS) for 15 min, washed twice with 1×PBS supplemented with 100 mM glycine for 5 min, and incubated with permeabilization buffer consisting of 0.1% Triton X-100 (Sigma-Aldrich, USA) in 1×PBS for 30 min at room temperature. Blocking was performed with 1% bovine serum albumin (BSA, Sigma-Aldrich, USA) for 30 min at room temperature. Then, SRA, clathrin, caveolin1, NEP, or IDE mouse monoclonal antibody (1:200; Santa Cruz Biotechnology, USA) was added to 1% BSA in PBS with Tween 20 (PBST) and incubated for 2 h at room temperature. […]

NEP = NEP mRNA expression in HMO6 human microglial cells (qPCR); format: cell-based
Procedure: (§3) HMO6 human microglial cell line was kindly provided by Dr. SU Kim (Chung-Ang University, Korea). HMO6 cells were grown in Dulbecco's Modified Eagle's Medium (DMEM) (Hyclone, USA) supplemented with 10% fetal bovine serum, 100 U/ml penicillin, and 100 μg/ml streptomycin (Invitrogen, USA). Cultures were maintained under 5% CO2 at 37° C. in tissue culture flasks. Cells were grown to >90% confluency and subjected to no more than 20 cell passages. Medium was changed every 2-3 days. Subconfluent cells were harvested and seeded at a density of 5×10^5 cells or 5×10^6 cells in poly-L-lysine-coated 35-mm or 60-mm culture plates. […]
(§4) Total RNA extracts from HMO6 cells or perfused brain tissue were prepared using the Trizol method (Invitrogen). cDNA was synthesized from RNA by reverse transcription of 1 μg total RNA using the Improm-II reverse transcription system (Promega, Wis., USA) and oligo dT primers in a total volume of 20 μl. […] Relative sample expression levels were calculated using Rotor-Gene 6000 Series Software 1.7 and were expressed relative to β-actin for mice or glyceraldehyde 3-phosphate dehydrogenase for HMO6 cells and corrected for between-run variability. Data for the experimental samples are expressed as a percentage of the internal control gene. […]

SRA [2] = assay: SRA mRNA expression in HMO6 human microglial cells (qPCR); format: cell-based; settings: Rg3-treated HMO6 cells (FIG. 14)
Procedure: as §3, §4

clathrin = assay: Clathrin immunocytochemistry in HMO6 cells; format: cell-based, human; settings: Rg3 5 μg/ml, 24 h, immunocytochemistry (FIG. 20)
Procedure: as §1, §2

`CC(C)=CCC[C@](C)(O)[C@H]1CC[C@]2(C)[C@@H]1[C@H](O)C[C@@H]1[C@@]3(C)CC[C@H](O[C@@H]4O[C@H](CO)[C@@H](O)[C@H](O)[C@H]4O[C@@H]4O[C@H](CO)[C@@H](O)[C@H](O)[C@H]4O)C(C)(C)[C@@H]3CC[C@]12C` [ginsenoside Rg3] was tested, and the “phosphorylation of ERK” value (ERK) was “promoted the phosphorylation”, the “expression of SRA mRNA in brain tissues” value (SRA [1]) was “increased” and the caveolin1 expression (caveolin1) was “highly expressed”. For the same molecule, the “NEP mRNA” value (NEP; HMO6 cells, Aβ42 (5 μM) and/or Rg3 (2.5 or 5 μg/ml), 24 h (FIG. 15D)) was “increased significantly”, the “NEP mRNA expression” value (NEP; Rg3-treated HMO6 cells (FIG. 14)) was “dose-dependently increased” and the “SRA mRNA expression” value (SRA [2]) was “dose-dependently increased”. The clathrin expression (clathrin) was “highly expressed”.
